According to publication PMC6934184, “Selective DNA-PKcs inhibition extends the therapeutic index of localized radiotherapy and chemotherapy” (The Journal of Clinical Investigation, 2019):

Target: T1, PI4KA (PI4K alpha) (Homo sapiens, UniProt P42356)
T1 construct: purchased Thermo Fisher Scientific (Life Technologies) SelectScreen
Experiment: SelectScreen Adapta
Format: biochemical
Conditions: ATP 10 µM
Experimental: The in vitro kinase selectivity of NU5455 was determined using the SelectScreen Broad Assay Panel (Thermo Fisher Scientific) involving activity and binding assays (Supplemental Table 1). […] Class IA PI3Ks were measured using the p85α subunit.
Kinase [ATP] % Assay Kinase [ATP] % Assay Kinase [ATP] % Assay Kinase [ATP] % Assay […]
SGK (SGK1) Km app 8.5 Z MAP4K2 (GCK) Km app 2.7 Z TLK2 n/a -0.3 L STK38 (NDR) n/a -5.9 L
MERTK (cMER) Km app 8.3 Z CDK2/cyclin A Km app 2.7 Z TGFBR1 (ALK5) n/a -0.4 L MATK (HYL) Km app -6.3 Z
FYN Km app 8.3 Z EPHA1 Km app 2.7 Z CLK3 Km app -0.5 Z ABL1 E255K Km app -6.6 Z
TEC n/a 8.1 L CDK2/cyclin E1 n/a 2.7 L MAP3K14 (NIK) n/a -0.5 L STK17A (DRAK1) n/a -6.6 L
KIT V654A n/a 8.1 L TESK2 n/a 2.7 L AKT3 (PKB gamma) Km app -0.5 Z JAK2 JH1 JH2 Km app -6.7 Z
ROS1 Km app 8.0 Z SPHK1 Km app 2.7 A MAP3K9 (MLK1) Km app -0.5 Z PRKACB (PRKAC beta) n/a -6.8 L
FGFR3 K650E Km app 7.9 Z AMPK A2/B1/G1 Km app 2.6 Z IKBKB (IKK beta) Km app -0.6 Z PDGFRA (PDGFR alpha) Km app -6.8 Z
RAF1 (cRAF) Y340D Y341D 100 7.9 Z DYRK3 Km app 2.6 Z CAMK2A (CaMKII alpha) Km app -0.6 Z NEK9 Km app -7.2 Z
PI4KA (PI4K alpha) 10 7.8 A CSNK1D (CK1 delta) Km app 2.6 Z PRKCB1 (PKC beta I) Km app -0.7 Z PDK1 Km app -7.3 Z
HIPK2 Km app 7.8 Z ACVR2A n/a 2.5 L TTK n/a -0.7 L RPS6KB1 (p70S6K) Km app -7.8 Z
CSK Km app 7.6 Z DDR2 T654M n/a 2.5 L ZAK n/a -0.7 L STK38L (NDR2) n/a -8.4 L
PRKCG (PKC gamma) Km app 7.6 Z JAK2 Km app 2.5 Z IKBKE (IKK epsilon) Km app -0.7 Z ABL1 G250E Km app -8.5 Z
SRMS (Srm) Km app 7.5 Z HIPK3 (YAK1) Km app 2.5 Z CAMK2G (CaMKII gamma) n/a -0.8 L PRKD1 (PKC mu) Km app -8.5 Z
YES1 Km app 7.4 Z AMPK (A1/B1/G2) n/a 2.4 L TLK1 n/a -0.8 L CDK5/p35 Km app -8.6 Z
RPS6KA5 (MSK1) Km app 7.4 Z MYO3B (MYO3 beta) n/a 2.3 L MAPK12 (p38 gamma) Km app -0.8 Z PDGFRA T674I Km app -8.9 Z
TNIK n/a 7.3 L PASK Km app 2.3 Z PRKCI (PKC iota) Km app -0.8 Z BLK Km app -8.9 Z
FER Km app 7.1 Z ACVRL1 (ALK1) n/a 2.3 L PKN2 (PRK2) n/a -1.0 L PRKD2 (PKD2) Km app -9.1 Z
CDK16 (PCTK1)/cyclin Y n/a 7.0 L EGFR (ErbB1) L861Q Km app 2.2 Z PIM1 Km app -1.0 Z CSNK1G2 (CK1 gamma 2) Km app -9.3 Z
MST4 Km app 6.9 Z RPS6KA3 (RSK2) Km app 2.1 Z CDK5/p25 Km app -1.1 Z ROCK1 Km app -9.5 Z
FLT1 (VEGFR1) Km app 6.5 Z STK23 (MSSK1) Km app 2.0 Z SRPK1 Km app -1.1 Z PRKCB2 (PKC beta II) Km app -9.6 Z
DYRK1A Km app 6.4 Z ALK R1275Q n/a 2.0 L BRSK1 (SAD1) Km app -1.1 Z CSNK1G1 (CK1 gamma 1) Km app -9.9 Z
PRKCD (PKC delta) Km app 6.2 Z TBK1 Km app 2.0 Z MAP3K3 (MEKK3) n/a -1.1 L ABL2 (Arg) Km app -10.3 Z
EGFR (ErbB1) Km app 6.0 Z ACVR1B (ALK4) Km app 2.0 Z AMPK A1/B1/G1 Km app -1.2 Z STK3 (MST2) Km app -10.3 Z
CDC7/DBF4 n/a 6.0 L CDK3/cyclin E1 n/a 1.9 L WNK3 n/a -1.2 L CAMK4 (CaMKIV) Km app -10.4 Z
JAK3 Km app 6.0 Z KDR (VEGFR2) Km app 1.8 Z LATS1 n/a -1.3 L MKNK1 (MNK1) Km app -10.7 Z
MAPK13 (p38 delta) Km app 5.8 Z ULK1 n/a 1.8 L DMPK n/a -1.5 L FLT3 ITD n/a -11.6 L
FRAP1 (mTOR) Km app 5.7 Z AURKB (Aurora B) Km app 1.7 Z CDK2/cyclin A1 n/a -1.6 L CHEK2 (CHK2) Km app -11.7 Z
KIT Y823D n/a 5.6 L LRRK2 Km app 1.7 A LIMK1 n/a -1.7 L LTK (TYK1) Km app -13.1 Z
ITK Km app 5.5 Z MAP2K3 (MEK3) n/a 1.6 L DYRK1B Km app -1.8 Z JAK2 JH1 JH2 V617F Km app -13.8 Z
KIT Km app 5.3 Z DAPK1 Km app 1.6 A DDR1 n/a -1.8 L EPHA8 Km app -13.8 Z
CDK7/cyclin H/MNAT1 Km app 5.3 A EPHA6 n/a 1.6 L BTK Km app -2.0 Z EGFR (ErbB1) T790M L858R Km app -14.1 Z
RET Km app 5.2 Z MAP4K1 (HPK1) n/a 1.6 L ADRBK1 (GRK2) Km app -2.0 Z MET M1250T Km app -14.5 Z […]

T1 sequence (P42356 whole entry): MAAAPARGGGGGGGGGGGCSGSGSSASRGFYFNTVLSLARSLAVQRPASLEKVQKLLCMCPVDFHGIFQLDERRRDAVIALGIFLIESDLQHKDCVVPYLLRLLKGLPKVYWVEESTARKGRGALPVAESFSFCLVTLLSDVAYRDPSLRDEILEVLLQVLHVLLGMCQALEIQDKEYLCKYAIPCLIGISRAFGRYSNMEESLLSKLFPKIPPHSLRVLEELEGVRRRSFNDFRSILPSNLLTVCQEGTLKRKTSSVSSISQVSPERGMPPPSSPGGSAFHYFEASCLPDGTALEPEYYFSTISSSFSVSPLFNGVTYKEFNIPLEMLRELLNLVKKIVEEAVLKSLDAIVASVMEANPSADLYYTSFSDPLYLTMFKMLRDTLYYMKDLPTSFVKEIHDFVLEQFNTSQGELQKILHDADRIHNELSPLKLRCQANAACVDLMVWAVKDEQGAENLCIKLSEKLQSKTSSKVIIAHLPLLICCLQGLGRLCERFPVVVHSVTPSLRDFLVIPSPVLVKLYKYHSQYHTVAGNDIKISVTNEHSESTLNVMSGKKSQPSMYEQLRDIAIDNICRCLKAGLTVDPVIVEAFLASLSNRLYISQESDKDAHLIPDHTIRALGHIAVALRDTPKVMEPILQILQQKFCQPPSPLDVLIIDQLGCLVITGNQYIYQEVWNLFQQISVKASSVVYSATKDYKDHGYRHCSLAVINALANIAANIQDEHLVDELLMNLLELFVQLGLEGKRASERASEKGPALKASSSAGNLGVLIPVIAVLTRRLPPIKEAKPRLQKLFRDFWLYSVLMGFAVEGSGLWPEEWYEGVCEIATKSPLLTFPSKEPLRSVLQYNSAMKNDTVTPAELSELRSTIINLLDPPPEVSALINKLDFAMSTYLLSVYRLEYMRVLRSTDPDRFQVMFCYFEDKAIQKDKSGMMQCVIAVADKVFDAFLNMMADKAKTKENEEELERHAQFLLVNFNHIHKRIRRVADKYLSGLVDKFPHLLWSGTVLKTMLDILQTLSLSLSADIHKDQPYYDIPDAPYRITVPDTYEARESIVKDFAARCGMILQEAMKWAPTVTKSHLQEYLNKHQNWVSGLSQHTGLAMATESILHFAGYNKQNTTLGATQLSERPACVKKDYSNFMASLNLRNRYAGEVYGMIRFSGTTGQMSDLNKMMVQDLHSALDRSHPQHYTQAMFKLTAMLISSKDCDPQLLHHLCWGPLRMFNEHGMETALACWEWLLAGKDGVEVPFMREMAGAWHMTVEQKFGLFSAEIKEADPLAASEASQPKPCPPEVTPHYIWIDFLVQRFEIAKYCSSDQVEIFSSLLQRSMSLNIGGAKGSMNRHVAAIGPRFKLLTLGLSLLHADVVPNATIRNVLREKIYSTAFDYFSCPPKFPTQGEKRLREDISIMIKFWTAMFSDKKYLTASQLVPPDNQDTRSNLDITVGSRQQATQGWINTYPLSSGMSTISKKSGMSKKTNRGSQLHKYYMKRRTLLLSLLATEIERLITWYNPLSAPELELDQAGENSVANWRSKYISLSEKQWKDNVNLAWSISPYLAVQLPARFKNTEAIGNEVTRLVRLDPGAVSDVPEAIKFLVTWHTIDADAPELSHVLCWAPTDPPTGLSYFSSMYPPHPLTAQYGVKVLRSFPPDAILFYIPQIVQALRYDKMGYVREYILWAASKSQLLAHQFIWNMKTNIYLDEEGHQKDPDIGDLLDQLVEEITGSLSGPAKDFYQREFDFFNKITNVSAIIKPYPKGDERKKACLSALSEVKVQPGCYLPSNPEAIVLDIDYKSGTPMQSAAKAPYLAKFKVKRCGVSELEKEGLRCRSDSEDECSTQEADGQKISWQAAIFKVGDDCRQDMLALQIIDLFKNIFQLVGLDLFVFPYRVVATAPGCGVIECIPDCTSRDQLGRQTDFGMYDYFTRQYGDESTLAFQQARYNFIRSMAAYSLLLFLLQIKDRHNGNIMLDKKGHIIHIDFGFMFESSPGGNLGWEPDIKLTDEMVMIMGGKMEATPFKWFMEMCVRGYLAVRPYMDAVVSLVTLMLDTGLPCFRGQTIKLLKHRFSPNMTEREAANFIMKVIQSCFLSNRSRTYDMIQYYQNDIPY

CN(C(=O)CN1CCOCC1)c1ccc2sc3c(-c4cccc5c(=O)cc(N6CC7CCC(C6)O7)oc45)cccc3c2c1 [NU5455] showed an inhibition at 1 µM of 7.8%.
